The record followed here is US9540397B2, “BACE1 inhibitors” (Hoffmann-La Roche Inc., priority 2014, dated 2017).

In the test the target is T1, BACE1 (Homo sapiens, UniProt P56817).
T1 construct: endogenous in cells; host or cells: HEK293 APP cells
T1 sequence (P56817 46-501): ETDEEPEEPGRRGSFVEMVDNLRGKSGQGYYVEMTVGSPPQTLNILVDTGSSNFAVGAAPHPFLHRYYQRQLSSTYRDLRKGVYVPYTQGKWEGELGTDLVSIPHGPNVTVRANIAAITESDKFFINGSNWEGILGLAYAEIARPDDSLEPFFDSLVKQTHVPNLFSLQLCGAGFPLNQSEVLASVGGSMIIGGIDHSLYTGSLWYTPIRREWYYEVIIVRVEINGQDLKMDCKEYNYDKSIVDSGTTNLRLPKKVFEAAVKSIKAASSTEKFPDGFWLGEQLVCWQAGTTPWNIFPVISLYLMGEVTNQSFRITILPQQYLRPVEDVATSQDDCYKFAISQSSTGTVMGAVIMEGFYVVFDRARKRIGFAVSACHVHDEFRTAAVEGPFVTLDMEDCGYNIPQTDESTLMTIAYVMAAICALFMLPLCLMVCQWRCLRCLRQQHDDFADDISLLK
Briefly: Cellular Aβ-lowering assay (Abeta 40 AlphaLISA, HEK293 APP cells). Format: cell-based. The conditions noted are these: 18-20 hrs incubation, Aβ40 in culture supernatant, read-out: BACE1 cell act. Aβ40 IC50. Here is the method: Cellular Aβ-lowering assay:
The Abeta 40 AlphaLISA Assay can be used. The HEK293 APP cells were seeded in 96 well Microtiter plates in cell culture medium (Iscove's, plus 10% (v/v) fetal bovine serum, penicillin/streptomycin) to about 80% confluency and the compounds were added at a 3× concentration in ⅓ volume of culture medium (final DMSO concentration was kept at 1% v/v). After 18-20 hrs incubation at 37° C. and 5% CO2 in a humidified incubator, the culture supernatants were harvested for the determination of AP 40 concentrations using Perkin-Elmer Human Amyloid beta 1-40 (high specificity) Kit (Cat#AL275C).
In a Perkin-Elmer White Optiplate-384 (Cat#6007290), 2 ul culture supernatants were combined with 2 μl of a 10× AlphaLISA Anti-hAβ Acceptor beads+Biotinylated Antibody Anti-Aβ 1-40 Mix ([…]/5 nM). After 1 hour room temperature incubation, 16 μl of a 1.25× preparation of Streptavidin (SA) Donor beads (25 μg/mL) were added and incubated for 30 minutes in the Dark. Light Emission at 615 nm was then recorded using EnVision-Alpha Reader. Levels of Aβ 40 in the culture supernatants were calculated as percentage of maximum signal (cells treated with 1% DMSO without inhibitor). The IC50 values were calculated using the Excel XLfit software.
Take `Cc1cc(F)cnc1C(=O)Nc1ccc(F)c([C@@]2(C)N=C(N)C(C)(C)[S@]3(=O)=NCC[C@H]23)n1` [Example 10BA, N-(6-((3aR,4R,8S)-6-amino-4,7,7-trimethyl-8-oxido-3,3a,4,7-tetrahydro-2H-isothiazolo[1,5-a][1,4]thiazin-4-yl)-5-fluoropyridin-2-yl)-5-fluoro-3-methylpicolinamide]: the IC50 was 420 nM.
Regarding `CC1(C)C(N)=N[C@](C)(c2nc(NC(=O)c3ncc(F)cc3Cl)ccc2F)[C@H]2CCN=[S@]21=O` [Example 11BA, N-(6-((3aR,4R,8S)-6-amino-4,7,7-trimethyl-8-oxido-3,3a,4,7-tetrahydro-2H-isothiazolo[1,5-a][1,4]thiazin-4-yl)-5-fluoropyridin-2-yl)-3-chloro-5-fluoropicolinamide], the IC50 was determined as 117 nM.
With `Cc1cc(Cl)cnc1C(=O)Nc1ccc(F)c([C@@]2(C)N=C(N)C(C)(C)[S@]3(=O)=NCC[C@H]23)n1` [Example 12BA, N-(6-((3aR,4R,8S)-6-amino-4,7,7-trimethyl-8-oxido-3,3a,4,7-tetrahydro-2H-isothiazolo[1,5-a][1,4]thiazin-4-yl)-5-fluoropyridin-2-yl)-5-chloro-3-methylpicolinamide], the 50% inhibitory concentration (IC50) is 24.2 nM.
In the case of `CC1(C)C(N)=N[C@](C)(c2nc(NC(=O)c3ccc(OCF)cn3)ccc2F)[C@H]2CCN=[S@]21=O` [Example 13BA, N-(6-((3aR,4R,8S)-6-amino-4,7,7-trimethyl-8-oxido-3,3a,4,7-tetrahydro-2H-isothiazolo[1,5-a][1,4]thiazin-4-yl)-5-fluoropyridin-2-yl)-5-(fluoromethoxy)picolinamide], the IC50 stood at 382 nM.
With `CC1(C)C(N)=N[C@](C)(c2nc(NC(=O)c3ccc(OC(F)F)cn3)ccc2F)[C@H]2CCN=[S@]21=O` [Example 14BA, N-(6-((3aR,4R,8S)-6-amino-4,7,7-trimethyl-8-oxido-3,3a,4,7-tetrahydro-2H-isothiazolo[1,5-a][1,4]thiazin-4-yl)-5-fluoropyridin-2-yl)-5-(difluoromethoxy)picolinamide] the figure was 52.6 nM; with `CC1(C)C(N)=N[C@](C)(c2nc(NC(=O)c3ccc(OCC(F)(F)C(F)F)cn3)ccc2F)[C@H]2CCN=[S@]21=O` [Example 15BA, N-(6-((3aR,4R,8S)-6-amino-4,7,7-trimethyl-8-oxido-3,3a,4,7-tetrahydro-2H-isothiazolo[1,5-a][1,4]thiazin-4-yl)-5-fluoropyridin-2-yl)-5-(2,2,3,3-tetrafluoropropoxy)picolinamide], 557 nM; with `COc1cnc(C(=O)Nc2ccc(F)c([C@@]3(C)N=C(N)C(C)(C)[S@]4(=O)=NCC[C@H]34)n2)cn1` [Example 16BA, N-(6-((3aR,4R,8S)-6-amino-4,7,7-trimethyl-8-oxido-3,3a,4,7-tetrahydro-2H-isothiazolo[1,5-a][1,4]thiazin-4-yl)-5-fluoropyridin-2-yl)-5-methoxypyrazine-2-carboxamide], 115 nM.
As to `CC1(C)C(N)=N[C@](C)(c2nc(NC(=O)c3cnc(OC(F)F)cn3)ccc2F)[C@H]2CCN=[S@]21=O` [Example 26BA, N-(6-((3aR,4R,8S)-6-amino-4,7,7-trimethyl-8-oxido-3,3a,4,7-tetrahydro-2H-isothiazolo[1,5-a][1,4]thiazin-4-yl)-5-fluoropyridin-2-yl)-5-(difluoromethoxy)pyrazine-2-carboxamide], the concentration for half-maximal inhibition (IC50) stood at 152 nM.
In the case of `CC1(C)C(N)=N[C@](C)(c2nc(NC(=O)c3ccc(F)cn3)ccc2F)[C@H]2CCN=[S@]21=O` [Example 27BA, N-(6-((3aR,4R,8S)-6-amino-4,7,7-trimethyl-8-oxido-3,3a,4,7-tetrahydro-2H-isothiazolo[1,5-a][1,4]thiazin-4-yl)-5-fluoropyridin-2-yl)-5-fluoropicolinamide] it was 118 nM.
In the case of `CC1(C)C(N)=N[C@](C)(c2nc(NC(=O)c3ccc(C#N)cc3)ccc2F)[C@@H]2CCN=[S@@]21=O` [Example 30AB, N-(6-((3aS,4R,8R)-6-amino-4,7,7-trimethyl-8-oxido-3,3a,4,7-tetrahydro-2H-isothiazolo[1,5-a][1,4]thiazin-4-yl)-5-fluoropyridin-2-yl)-4-cyanobenzamide] it was 14 nM; in that of `CC1(C)C(N)=N[C@](C)(c2nc(NC(=O)c3ccc(C#N)cc3Cl)ccc2F)[C@@H]2CCN=[S@@]21=O` [Example 31AB, N-(6-((3aS,4R,8R)-6-amino-4,7,7-trimethyl-8-oxido-3,3a,4,7-tetrahydro-2H-isothiazolo[1,5-a][1,4]thiazin-4-yl)-5-fluoropyridin-2-yl)-2-chloro-4-cyanobenzamide], 34 nM; in that of `COc1cnc(C(=O)Nc2ccc(F)c([C@@]3(C)N=C(N)C(C)(C)[S@@]4(=O)=NCC(F)(F)C[C@H]34)n2)cn1` [Example 38AA, N-(6-((4aR,5R,9R)-7-amino-3,3-difluoro-5,8,8-trimethyl-9-oxido-2,3,4,4a,5,8-hexahydro-[1,4]thiazino[2,1-f][1,2]thiazin-5-yl)-5-fluoropyridin-2-yl)-5-methoxypyrazine-2-carboxamide], 295 nM.
Take `Cc1cc(F)cnc1C(=O)Nc1ccc(F)c([C@@]2(C)N=C(N)C(C)(C)[S@@]3(=O)=NCC(F)(F)C[C@H]23)n1` [Example 39AA, N-(6-((4aR,5R,9R)-7-amino-3,3-difluoro-5,8,8-trimethyl-9-oxido-2,3,4,4a,5,8-hexahydro-[1,4]thiazino[2,1-f][1,2]thiazin-5-yl)-5-fluoropyridin-2-yl)-5-fluoro-3-methylpicolinamide]: the IC50 turned out to be 114 nM.
Consider `CC1(C)C(N)=N[C@](C)(c2nc(NC(=O)c3ccc(C(=O)O)cn3)ccc2F)[C@H]2CC(F)(F)CN=[S@@]21=O` [Example 44AA, 6-((6-((4aR,5R,9R)-7-amino-3,3-difluoro-5,8,8-trimethyl-9-oxido-2,3,4,4a,5,8-hexahydro-[1,4]thiazino[2,1-f][1,2]thiazin-5-yl)-5-fluoropyridin-2-yl)carbamoyl)nicotinic acid], for which the IC50 is greater than 40 nM.
Regarding `CC1(C)C(N)=N[C@](C)(c2nc(NC(=O)c3cnc(OCC(F)F)cn3)ccc2F)[C@H]2CC(F)(F)CN=[S@@]21=O` [Example 46AA, N-(6-((4aR,5R,9R)-7-amino-3,3-difluoro-5,8,8-trimethyl-9-oxido-2,3,4,4a,5,8-hexahydro-[1,4]thiazino[2,1-f][1,2]thiazin-5-yl)-5-fluoropyridin-2-yl)-5-(2,2-difluoroethoxy)pyrazine-2-carboxamide], the IC50 worked out at 144 nM.
In the case of `CC#Cc1ccc(C(=O)Nc2ccc(F)c([C@@]3(C)N=C(N)C(C)(C)[S@@]4(=O)=NCC(F)(F)C[C@H]34)n2)nc1` [Example 47AA, N-(6-((4aR,5R,9R)-7-amino-3,3-difluoro-5,8,8-trimethyl-9-oxido-2,3,4,4a,5,8-hexahydro-[1,4]thiazino[2,1-f][1,2]thiazin-5-yl)-5-fluoropyridin-2-yl)-5-(prop-1-yn-1-yl)picolinamide] it was 147 nM; in that of `Cc1cc(C#N)cnc1C(=O)Nc1ccc(F)c([C@@]2(C)N=C(N)C(C)(C)[S@@]3(=O)=NCC4(CC4)C[C@@H]23)n1` [Example 48AB, N-(6-((4aS,5R,9R)-7-amino-5,8,8-trimethyl-9-oxido-4,4a,5,8-tetrahydro-2H-spiro[[1,4]-thiazino[2,1-f][1,2]thiazine-3,1′-cyclopropan]-5-yl)-5-fluoropyridin-2-yl)-5-cyano-3-methylpicolinamide], 13 nM.
Turning to `CC1(C)C(N)=N[C@](C)(c2nc(NC(=O)c3nn(C(F)F)cc3Cl)ccc2F)[C@@H]2CCN=[S@@]21=O` [Example 51AB, N-(6-((3aS,4R,8R)-6-amino-4,7,7-trimethyl-8-oxido-3,3a,4,7-tetrahydro-2H-isothiazolo[1,5-a][1,4]thiazin-4-yl)-5-fluoropyridin-2-yl)-4-chloro-1-(difluoromethyl)-1H-pyrazole-3-carboxamide], the half-inhibitory concentration (IC50) was less than 10 nM.
